Consider 13 compounds from patent publication US11981661B2, “Heterocyclic compounds” (Hoffmann-La Roche Inc., priority 2020, dated 2024).

This test concerns the target T1, MAGL (Homo sapiens, UniProt Q99685).
T1 sequence (Q99685 1-303): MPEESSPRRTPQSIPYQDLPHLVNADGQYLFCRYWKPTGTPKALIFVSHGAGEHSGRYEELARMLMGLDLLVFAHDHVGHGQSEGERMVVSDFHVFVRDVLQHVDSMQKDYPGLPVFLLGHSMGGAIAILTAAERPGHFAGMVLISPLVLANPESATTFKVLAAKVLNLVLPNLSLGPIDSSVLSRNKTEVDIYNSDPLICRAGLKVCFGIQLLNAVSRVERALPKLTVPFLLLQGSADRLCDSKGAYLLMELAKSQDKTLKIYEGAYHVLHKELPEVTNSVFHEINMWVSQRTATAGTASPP
The test can be described thus: 2-AG assay (MAGL inhibitory activity, hydrolysis of 2-arachidonoylglycerol followed by mass spectrometry). The format is biochemical. As to conditions: 50 pM MAGL, 8 μM 2-arachidonoylglycerol, 15 min preincubation, 30 min incubation at RT, concentration range 12.5 μM to 0.8 pM. An outline of the steps:
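50 pM MAGL preincubated 15 min at RT with compound (12.5 μM to 0.8 pM) in 50 mM TRIS, 1 mM EDTA, 0.01% Tween, then 8 μM 2-arachidonoylglycerol for 30 min at RT. Arachidonic acid measured by RapidFire SPE–triple quadrupole MS in negative mode, normalised to d8-arachidonic acid.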

The term IC50 denotes the point on the concentration scale where inhibition reaches its midpoint. A lower IC50 goes with higher potency. For the compound `CS(=O)(=O)c1cc(C2CN(C(=O)CC[C@@H]3COC(=O)N3)C2)ccc1-c1ccc(Cl)cc1F` [Example 120, (4R)-4-[3-[3-[4-(4-Chloro-2-fluoro-phenyl)-3-methylsulfonyl-phenyl]azetidin-1-yl]-3-oxo-propyl]oxazolidin-2-one], the 50% inhibitory concentration (IC50) is 19 nM. `CS(=O)(=O)c1cc(Cl)ccc1-c1ccc(C2CN(C(=O)CC[C@@H]3COC(=O)N3)C2)nc1` [Example 121, (4R)-4-[3-[3-[5-(4-Chloro-2-methylsulfonyl-phenyl)-2-pyridyl]azetidin-1-yl]-3-oxo-propyl]oxazolidin-2-one]: the IC50 was 2 nM. To `CS(=O)(=O)c1ccc(-c2cnc(C3CN(C(=O)CC[C@@H]4COC(=O)N4)C3)nc2)c(Cl)c1` [Example 122, (4R)-4-[3-[3-[5-(2-Chloro-4-methylsulfonyl-phenyl)pyrimidin-2-yl]azetidin-1-yl]-3-oxo-propyl] oxazolidin-2-one] belongs 379 nM; to `CS(=O)(=O)c1ccc(-c2ncc(C3CN(C(=O)CC[C@@H]4COC(=O)N4)C3)cn2)c(Cl)c1` [Example 123, (4R)-4-[3-[3-[2-(2-Chloro-4-methylsulfonyl-phenyl)pyrimidin-5-yl]azetidin-1-yl]-3-oxo-propyl] oxazolidin-2-one], 982 nM. Next, `CS(=O)(=O)c1ncc(C(F)(F)F)cc1-c1ccc(C2CN(C(=O)CC[C@@H]3COC(=O)N3)C2)cc1` [Example 124, (4R)-4-[3-[3-[4-[2-Methyl-sulfonyl-5-(trifluoromethyl)-3-pyridyl]phenyl]azetidin-1-yl]-3-oxo-propyl] oxazolidin-2-one]: 3 nM; `O=C1N[C@H](CCC(=O)N2CC3(CC(Cc4ccc(C(F)(F)F)nc4)C3)C2)CO1` [Example 125, (4R)-4-[3-Oxo-3-[6-[[6-(trifluoro-methyl)-3-pyridyl]methyl]-2-azaspiro[3.3]heptan-2-yl]propyl] oxazolidin-2-one]: 9 nM; `O=C1N[C@H](CCC(=O)N2CC3(CCN(Cc4ccc(C(F)(F)F)cc4F)CC3)C2)CO1` [Example 126, (4R)-4-[3-[7-[[2-Fluoro-4-(trifluoro-methyl)phenyl]methyl]-2,7-diazaspiro[3.5]nonan-2-yl]-3-oxo-propyl] oxazolidin-2-one]: 25 nM.

For `O=C1N[C@H](CCC(=O)N2CC(c3ccc(Oc4nccc(C(F)(F)F)n4)cc3)C2)CO1` [Example 127, (4R)-4-[3-Oxo-3-[3-[4-[4-(trifluoro-methyl)pyrimidin-2-yl]oxyphenyl]azetidin-1-yl]propyl]oxazolidin-2-one], the IC50 was found to be 1800 nM. The compound `CS(=O)(=O)c1ccc(-c2ccc(C3CN(C(=O)CC[C@@H]4COC(=O)N4)C3)cc2)c(C(F)(F)F)c1` [Example 128, (4R)-4-[3-[3-[4-[4-Methyl-sulfonyl-2-(trifluoromethyl)phenyl]phenyl]azetidin-1-yl]-3-oxo-propyl] oxazolidin-2-one] registered an IC50 of 0.26 nM.

Consider `O=C1N[C@H](CCC(=O)N2CC(c3ccc(N4CCC(C(F)(F)F)C4)c(F)c3)C2)CO1` (stereo partly drawn) [Example 129, (4R)-4-[3-[3-[3-Fluoro-4-[3-(trifluoromethyl)pyrrolidin-1-yl]phenyl]azetidin-1-yl]-3-oxo-propyl]oxazolidin-2-one], for which 3 nM corresponded to half-maximal inhibition (IC50).

For the compound `O=C1N[C@H](CCC(=O)N2CC(c3ccc(C4CCS(=O)(=O)C4)cc3)C2)CO1` (stereo partly drawn) [Example 130, (4R)-4-[3-[3-[4-(1,1-Dioxothiolan-3-yl)phenyl]azetidin-1-yl]-3-oxo-propyl] oxazolidin-2-one], the IC50 came to 251 nM. Next, `O=C1N[C@H](CCC(=O)N2CC(c3ccc(N4CC5(CCCC5)C4)cc3)C2)CO1` [Example 131]: 1 nM; `O=C1N[C@H](CCC(=O)N2CC(c3ccc(N4CC5(C4)CC(F)(F)C5)cc3)C2)CO1` [Example 132, (4R)-4-[3-[3-[4-(6,6-Difluoro-2-azaspiro[3.3]heptan-2-yl)phenyl]azetidin-1-yl]-3-oxo-propyl]oxazolidin-2-one]: 9 nM.
